Source: patent US20170298055A1, “sGC STIMULATORS” (IRONWOOD PHARMACEUTICALS, INC., priority 2014, published 2017)

Assays:
[1] = target: T1, soluble guanylate cyclase (sGC) (Homo sapiens, UniProt Q02108+Q02153); assay: sGC-HEK-cGMP assay, LC/MS detection, with SNP incubation (Example 2A); type: cell-based; conditions: HEK293 cells, in the presence of 10 μM SNP; top of concentration-response curve not fitted to 100%; read-out: sGC_HEK_LCMS uEC50 (nM) Binned (unconstrained)
T1 construct: endogenously expressing soluble guanylate cyclase (sGC); endogenous in cells; host or cells: HEK293
T1 sequence (Q02153 1-619): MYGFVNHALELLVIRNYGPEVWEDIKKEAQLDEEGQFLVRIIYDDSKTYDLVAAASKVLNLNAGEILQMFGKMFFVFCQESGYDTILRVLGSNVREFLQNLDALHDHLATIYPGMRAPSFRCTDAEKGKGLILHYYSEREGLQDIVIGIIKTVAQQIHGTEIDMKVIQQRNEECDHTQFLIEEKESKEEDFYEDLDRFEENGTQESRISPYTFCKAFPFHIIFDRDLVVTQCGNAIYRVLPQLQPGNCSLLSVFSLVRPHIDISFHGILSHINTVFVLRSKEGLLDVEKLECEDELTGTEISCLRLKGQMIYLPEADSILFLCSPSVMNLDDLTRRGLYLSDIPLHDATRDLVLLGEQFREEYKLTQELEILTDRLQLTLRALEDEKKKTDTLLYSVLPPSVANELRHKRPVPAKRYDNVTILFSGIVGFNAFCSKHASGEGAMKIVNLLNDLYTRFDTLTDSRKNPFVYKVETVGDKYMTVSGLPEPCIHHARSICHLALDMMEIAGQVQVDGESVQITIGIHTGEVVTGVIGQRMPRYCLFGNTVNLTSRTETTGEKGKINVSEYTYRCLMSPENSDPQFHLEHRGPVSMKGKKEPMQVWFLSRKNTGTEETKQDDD
T1 sequence (Q02108 1-690): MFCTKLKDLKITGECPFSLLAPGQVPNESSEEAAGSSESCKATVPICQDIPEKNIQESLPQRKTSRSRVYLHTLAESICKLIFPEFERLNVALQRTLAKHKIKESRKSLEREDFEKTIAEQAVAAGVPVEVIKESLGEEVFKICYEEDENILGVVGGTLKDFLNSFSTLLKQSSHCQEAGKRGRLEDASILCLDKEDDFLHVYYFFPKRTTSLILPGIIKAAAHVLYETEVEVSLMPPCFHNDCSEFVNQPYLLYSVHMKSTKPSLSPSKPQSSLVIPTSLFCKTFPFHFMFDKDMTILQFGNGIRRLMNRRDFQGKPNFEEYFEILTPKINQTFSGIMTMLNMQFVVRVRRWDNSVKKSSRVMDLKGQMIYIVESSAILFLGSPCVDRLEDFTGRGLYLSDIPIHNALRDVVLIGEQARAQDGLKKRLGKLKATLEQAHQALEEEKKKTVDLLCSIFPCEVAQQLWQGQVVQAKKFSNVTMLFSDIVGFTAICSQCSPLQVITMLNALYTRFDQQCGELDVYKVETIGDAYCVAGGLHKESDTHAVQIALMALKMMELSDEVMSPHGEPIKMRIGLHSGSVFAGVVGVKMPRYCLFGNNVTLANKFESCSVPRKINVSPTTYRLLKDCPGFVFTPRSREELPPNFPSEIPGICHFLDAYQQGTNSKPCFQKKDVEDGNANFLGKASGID
Procedure: Human embryonic kidney cells (HEK293), endogenously expressing soluble guanylate cyclase (sGC), were used to evaluate the activity of test compounds. Compounds stimulating the sGC receptor should cause an increase in the intracellular concentration of cGMP. HEK 293 cells were seeded in Dulbecco's Modification of Eagle's Medium supplemented with fetal bovine serum (10% final) and L-glutamine (2 mM final) in a 200 μL volume at a density of 1×10^5 cells/well in a poly-D-lysine coated 96 well flat bottom plate and grown overnight at 37° C. Medium was aspirated and cells were washed with 1× Hank's Buffered Saline Salt Solution (200 μL). Cells were then incubated for 15 minutes at 37° C. with 0.5 mM 3-isobutyl-1-methylxanthine (200 μL). Test article and sodium nitroprusside were then added to the assay mixture (2 μL each) and incubated at 37° C. for 10 minutes. After the 10 minute incubation, the assay mixture was aspirated and 0.1M HCl (200 μL) was added to the cells. The plate was incubated at 4° C. for 30 minutes in the 0.1M HCl to stop the reaction and lysed the cells. The plates were then centrifuged at 1,200 g for 5 minutes at room temperature. Supernatants were collected and transferred to a new flat bottom 96 well plate for analysis. Vehicle controls were carried out using DMSO (1%). A known sGC stimulator, BAY 41-2272, was used as the positive control. Samples were diluted with an equal volume of 1 M Ammonium Acetate (pH 7) to neutralize samples for better chromatography. A 2× cGMP standard curve was prepared in 0.1 M HCl and then diluted with an equal volume of 1 M Ammonium Acetate, with the following final concentrations in nM: 1024, 512, 256, 128, 64, 32, 16, 8, 4, 2, 1. cGMP concentrations were determined from each sample using the LC/MS conditions (Table 2 below) and calculated standard curve. EC50 values were calculated from concentration-response curves generated with GraphPad Prism Software.

[2] = target: T2, human recombinant soluble guanylate cyclase enzyme α1β1 (Homo sapiens, UniProt Q02108+Q02153); assay: Purified human recombinant sGC α1β1 enzyme assay with DETA-NONOate, cGMP HTRF (Example 5); type: biochemical; conditions: 30 uM DETA NONOate, 50% of maximal response of 30 uM Compound Y, read-out: sGC_Enz_HTRF_a1b1 EC50/IC50 Abs (Norm) (nM) Binned
T2 construct: purchased Enzo Life Sciences ALX-201-177
T2 sequence (Q02153 1-619): T1 sequence (Q02153 1-619)
T2 sequence (Q02108 1-690): T1 sequence (Q02108 1-690)
Procedure: Purified human recombinant soluble guanylate cyclase enzyme α1β1 (h sGC) obtained from Enzo Life Sciences (P/N: ALX-201-177) was used to evaluate the activity of test compounds. The assay reactions contained 0.1 M Tris (pH 8.0), 0.5 mg/mL BSA, 2 mM DTT, 4 mM MgCl2, 30 uM DETA NONOate (Enzo Life Science P/N: ALX-430-014), and 12.5 ng/ml human soluble guanylate cyclase enzyme. […] Guanosine 5′-triphosphate (Sigma-Aldrich P/N: G8877) was added to a final concentration of 300 μM and enzyme reactions were incubated (100 μL, 384-well plate format) at 37° C. for 20 minutes. The controls contained 3% DMSO (low control), or 30 uM of Compound Y (high control). After the 20 minute incubation, the reaction was stopped with the addition of 100 μL of ice cold 20% acetic acid.
cGMP concentrations in all samples were determined using the cGMP HTRF (Cisbio P/N: 62GM2PEC) assay per manufacturer's instructions. A cGMP standard curve was fit using a 4-parameter fit (log(inhibitor) vs. response variable slope) using GraphPad Prism Software v.6. Samples were diluted appropriately to ensure that values fell within the linear range of the standard curve.
Data were fit using a 4-parameter fit (log(agonist) vs. response variable slope) using GraphPad Prism Software v.6.

| Compound | EC50 [1] | EC50 [2] |
| --- | --- | --- |
| OCCOc1nc(-c2cc(-c3ccon3)n(Cc3ccccc3F)n2)ncc1F [Compound I-1] | 100 to 1000 nM | 1000 to 5000 nM |
| CN(C)CCOc1nc(-c2cc(-c3ccon3)n(Cc3ccccc3F)n2)ncc1F [Compound I-2] | 100 to 1000 nM | 1000 to 5000 nM |
